Like-named read-outs stand apart in the source and are kept apart here.
Test system: amphetamine-induced symptoms (cage movement behavior after d-amphetamine sulfate)
Assay: Antagonism of amphetamine stereotypy in rats
Format: in vivo
Conditions: Rattus norvegicus, sc, Part A
From the text: The tranquilizing agents of the present invention are characterized by relief of such schizophrenic manifestations in humans as hallucinations, hostility, suspiciousness, emotional or social withdrawal, anxiety, agitation and tension. A standard procedure of detecting and comparing tranquilizing activity of compounds in this series and for which there is an excellent correlation with human efficacy is the antagonism of amphetamine-induced symptoms in rat tests, as taught by A. Weissman, et al., J. Pharmacol. Exp. Ther., 151, 339 (1966) and by Quinton, et al., Nature, 200, 178, (1963).
Antagonism of Amphetamine Stereotypy in Rats Test Procedures and Results
The effects of the compounds of the present invention on prominent amphetamine-induced symptoms were studied in rats by a rating scale modeled after the one reported by Quinton and Halliwell, and Weissman. Groups of five rats were placed in a covered plastic cage measuring approximately 26 cm.×42 cm.×16 cm. After a brief period of acclimation in the cage, the rats in each group were treated subcutaneously (s.c.) with the test compound. They were then treated 1, 5 and 24 hrs. later with d-amphetamine sulfate, 5 mg./kg. intraperitoneally (i.p.). […] On the basis of dose-response data after amphetamine it was possible to determine the effective dose of the compound necessary to antagonize or block the characteristic amphetamine behavior of cage movement for fifty percent of the rats tested (ED50). The time of rating chosen coincides with the peak action of amphetamine which is 60-80 min. after treatment with this agent.
Employing the above-described procedure, the following 4a,9b-trans compounds were tested for their ability to block the behavior effects of amphetamine, the results being reported as the ED50 in mg./kg. at the indicated times: [drawing 33]

Molecule COc1ccc(C(O)CCCN2CCC3C(C2)c2cc(F)ccc2N3c2ccc(F)cc2)cc1 (stereo not drawn) has an ED50 (1 h, s.c. per method b367, 1 Hr., read-out: ED50 (mg./kg.) 1 Hr., antagonism of amphetamine stereotypy) of 0.1 to 0.32 mg/kg, an ED50 (5 h, s.c. per method b367, 5 Hr., read-out: ED50 (mg./kg.) 5 Hr., antagonism of amphetamine stereotypy) of less than 0.1 mg/kg and an ED50 (24 h, s.c. per method b367, 24 Hrs., read-out: ED50 (mg./kg.) 24 Hrs., antagonism of amphetamine stereotypy) of less than 0.32 mg/kg.
